Results from patent publication US10442759B2, “1-sulfonamido-4-aryloxy compounds, and preparation method and medicinal application thereof” (priority 2016, dated 2019).

How the values were obtained:
[1] = target: Keap1-Nrf2 protein-protein interaction (Keap1 Kelch domain protein, FITC-9mer Nrf2 polypeptide probe) (Homo sapiens (Human), UniProt Q14145); assay: Fluorescence polarization-based Keap1-Nrf2 protein-protein interaction inhibition experiment (FP experiment); assay type: binding; details: for IC50: FP experiment, Keap1 Kelch domain, FITC-9mer Nrf2 probe
Keap1-Nrf2 protein-protein interaction (Keap1 Kelch domain protein, FITC-9mer Nrf2 polypeptide probe), sequence (Q14145 321-609): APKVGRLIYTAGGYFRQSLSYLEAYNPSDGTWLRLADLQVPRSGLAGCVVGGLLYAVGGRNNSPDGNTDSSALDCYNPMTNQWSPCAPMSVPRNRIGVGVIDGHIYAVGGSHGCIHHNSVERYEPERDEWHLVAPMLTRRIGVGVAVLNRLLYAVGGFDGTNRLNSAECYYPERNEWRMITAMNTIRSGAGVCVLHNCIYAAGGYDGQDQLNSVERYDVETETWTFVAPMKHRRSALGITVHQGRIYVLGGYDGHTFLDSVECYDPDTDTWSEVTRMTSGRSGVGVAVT
Experimental: Fluorescence Polarization-Based Keap1-Nrf2 Protein-Protein Interaction Inhibition Experiment (FP Experiment)
The instrument used in the FP experiment was the SpectraMax Multi-Mode Microplate Reader (Molecular Devices), and the excitation and emission wavelengths of the instrument were selected based on the corresponding fluorophore.
Before the test, the system was mixed well and incubated for 30 minutes at room temperature. […] In this study, the fluorescence intensities in horizontal and vertical directions (F∥ and F^⊥) were used to calculate the millipolarization value (mP), so as to reflect the changes of the polarized light.
where Pmax, Pmin, and Pobs represent the polarization value in the well containing Keap1 and the fluorescence probe, the polarization value in the well containing the fluorescence probe, and the polarization value of the well containing the inhibitor, respectively. The IC50 of the compounds was calculated from curve of the inhibition rate against the inhibitor concentration.

ARE (HepG2-ARE-C8 cells) = assay: ARE luciferase reporter assay; assay type: cell-based; details: for Luciferase reporter activity (fold of induction): HepG2-ARE-C8 cells, 12 hrs
Experimental: ARE Luciferase Reporter Assay
100 μL was added to a 96-well microtiter plate and incubated overnight.
(2) 2 times of the desired concentration of the test compound was formulated in a culture medium, and 100 μL was added respectively to the corresponding wells. tBHQ was used as a positive control and DMSO was used as a negative control. The 96-well microtiter plate added with the compound was incubated for 12 hrs at a constant temperature of 37° C., 5% CO2, and saturated humidity.
(3) The 5× lysis buffer in the Luciferase Assay Kit was formulated into a 1× lysis buffer for future use.
(4) The 96-well microtiter plate was removed, the medium was aspirated from the wells, the cells were washed with 1×PBS buffer, and the PBS buffer was aspirated off after the wash. […] After the lysis, the lysate was stood for 3-5 min, and 20 μL of the lysate supernatant was aspirated into a corresponding 96-well white plate.
(5) The 96-well white plate was positioned in the Thermo Scientific Luminoskan Ascent Chemiluminescence Micropore Reader. 100 μL of a luciferase assay reagent (obtained by uniformly mixing 1 bottle of luciferase assay substrate in the luciferase assay kit and 1 bottle of luciferase detection buffer) was added to each well before the test, and the plate was read within 1 min after the test reagent was added.

Compound	IC50 [1]	Luciferase reporter activity (fold of induction) (ARE (HepG2-ARE-C8 cells); 0.1 μmol/L)	Luciferase reporter activity (fold of induction) (ARE (HepG2-ARE-C8 cells); 1 μmol/L)	Luciferase reporter activity (fold of induction) (ARE (HepG2-ARE-C8 cells); 10 μmol/L)	FP activity compared with the positive control Nrf2 9mer polypeptide [1]	fold of induction compared with the positive control tBHQ (ARE (HepG2-ARE-C8 cells); 10 μM)
2-(4-(2,4,6-trimethyl-N-(2-(hydroxylamino)-2-oxoethylbenzenesulfonamido) naphthalen-1-oxy)-benzeneacetic acid [Compound I-13]	980 nM	1.07 fold of induction	1.16 fold of induction	1.21 fold of induction		
2-(4-(2,4,6-trimethylbenzenesulfonamido)naphthalen-1-oxy)benzeneacetic acid [Compound I-11]	2430 nM	1.02 fold of induction	1.34 fold of induction	1.14 fold of induction		
2-(4-(2,4,6-trimethylbenzenesulfonamido)naphthalen-1-yl)oxy)-2-benzeneacetic acid [Compound I-2]	1320 nM	1.21 fold of induction	1.10 fold of induction	1.05 fold of induction		
3-(4-((N-carboxymethyl)-2,4,6-trimethylbenzenesulfonamido)naphthalen-1-yloxy)-(4-methoxyphenyl)propionic acid [Compound I-20]	830 nM	1.02 fold of induction	1.13 fold of induction	1.28 fold of induction		
COc1ccc(S(=O)(=O)N(CC(=O)O)c2ccc(Oc3ccccc3CC(=O)O)c3ccccc23)cc1 [Compound I-1]	2280 nM	0.98 fold of induction	1.10 fold of induction	1.07 fold of induction		
Cc1cc(C)c(S(=O)(=O)N(CC(=O)O)c2ccc(Oc3ccccc3CC(=O)O)c3ccccc23)c(C)c1 [Compound I-3]	580 nM	0.95 fold of induction	1.03 fold of induction	1.31 fold of induction		
CC(C)(C)c1ccc(S(=O)(=O)N(CC(=O)O)c2ccc(OC(C(=O)O)c3ccccc3)c3ccccc23)cc1 (stereo not shown) [Compound I-4]	980 nM	1.04 fold of induction	1.12 fold of induction	1.13 fold of induction		
COc1ccc(S(=O)(=O)N(CC(=O)O)c2ccc(Oc3ccccc3CC(=O)O)c3ccccc23)cc1OC [Compound I-5]	2300 nM	0.92 fold of induction	1.05 fold of induction	1.10 fold of induction		
COc1cc(OC)c(S(=O)(=O)N(CC(=O)O)c2ccc(OC(C(=O)O)c3ccccc3)c3ccccc23)c(OC)c1 (stereo not shown) [Compound I-6]	640 nM	1.01 fold of induction	1.26 fold of induction	1.09 fold of induction		
CC(=O)Nc1ccc(S(=O)(=O)N(CC(=O)O)c2ccc(Oc3ccccc3CC(=O)O)c3ccccc23)cc1 [Compound I-7]	5230 nM	0.97 fold of induction	1.01 fold of induction	1.03 fold of induction		
O=C(O)CN(c1ccc(OC(C(=O)O)c2ccccc2)c2ccccc12)S(=O)(=O)c1ccc([N+](=O)[O-])cc1 (stereo not shown) [Compound I-8, 2-(4-(N-(carboxymethyl)-4-nitrobenzenesulfonamido))naphthalen-1-oxy) benzeneacetate]	4790 nM	1.05 fold of induction	1.23 fold of induction	1.14 fold of induction		
O=C(O)CN(c1ccc(OC(C(=O)O)c2ccccc2)c2ccccc12)S(=O)(=O)c1ccc(F)cc1 (stereo not shown) [Compound I-9]	5160 nM	1.02 fold of induction	1.13 fold of induction	1.08 fold of induction		
O=C(O)Cc1ccccc1Oc1ccc(N(CC(=O)O)S(=O)(=O)c2ccc(C(F)(F)F)cc2)c2ccccc12 [Compound I-10]	6660 nM	0.92 fold of induction	0.95 fold of induction	1.10 fold of induction		
Cc1cc(C)c(S(=O)(=O)N(Cc2nn[nH]n2)c2ccc(Oc3ccccc3CC(=O)O)c3ccccc23)c(C)c1 [Compound I-12, 2-(4-((N-(2H-tetrazol-5-yl)methyl)-2,4,6-trimethylbenzenesulfonamido)naphthalen-1-oxy)benzeneacetic acid]	830 nM	1.05 fold of induction	1.19 fold of induction	1.36 fold of induction		
CCOc1ccc(C(Oc2ccc(N(CC(=O)O)S(=O)(=O)c3c(C)cc(C)cc3C)c3ccccc23)C(=O)O)cc1 (stereo not shown) [Compound I-15]	84 nM	1.33 fold of induction	2.05 fold of induction	3.92 fold of induction	better than the positive control	significantly higher than that of the positive control tBHQ
CC(=O)Nc1ccc(C(Oc2ccc(N(CC(=O)O)S(=O)(=O)c3c(C)cc(C)cc3C)c3ccccc23)C(=O)O)cc1 (stereo not shown) [Compound I-16]	90 nM	1.21 fold of induction	1.98 fold of induction	3.23 fold of induction	better than the positive control	
COc1cc(OC)c(S(=O)(=O)N(CC(=O)O)c2ccc(OC(C(=O)O)c3ccc(OC(C)C)cc3)c3ccccc23)c(OC)c1 (stereo not shown) [Compound I-17]	320 nM	1.39 fold of induction	1.39 fold of induction	2.07 fold of induction		
COc1cc(OC)c(S(=O)(=O)N(CC(=O)O)c2ccc(OC(C(=O)O)c3ccc(F)cc3)c3ccccc23)c(OC)c1 (stereo not shown) [Compound I-18]	310 nM	1.03 fold of induction	1.42 fold of induction	1.57 fold of induction		
COc1ccc(C(Oc2ccc(N(Cc3nn[nH]n3)S(=O)(=O)c3c(C)cc(C)cc3C)c3ccccc23)C(=O)O)cc1 (stereo not shown) [Compound I-19, 2-(4-((N-(2H-tetrazol-5-yl)methyl)-2,4,6-trimethylbenzenesulfonamido)naphthalen-1-oxy)-(4-methoxyphenyl)acetic acid]	140 nM	0.97 fold of induction	1.43 fold of induction	2.58 fold of induction		
CC(C)(C)c1cc(O)ccc1O [tBHQ, t-butylhydroquinone, reference compound]		1.46 fold of induction	1.38 fold of induction	3.61 fold of induction		
